What follows are compounds tested against MYT1 protein (Homo sapiens (Human), UniProt Q99640) (assay: Test for binding to ATP binding site of MYT1 (Kinase Tracer 178 / Eu-Anti-GST antibody TR-FRET)). Conditions: ATP binding site of MYT1, 30 minutes at room temperature.
Chain of MYT1 protein (Q99640 whole entry): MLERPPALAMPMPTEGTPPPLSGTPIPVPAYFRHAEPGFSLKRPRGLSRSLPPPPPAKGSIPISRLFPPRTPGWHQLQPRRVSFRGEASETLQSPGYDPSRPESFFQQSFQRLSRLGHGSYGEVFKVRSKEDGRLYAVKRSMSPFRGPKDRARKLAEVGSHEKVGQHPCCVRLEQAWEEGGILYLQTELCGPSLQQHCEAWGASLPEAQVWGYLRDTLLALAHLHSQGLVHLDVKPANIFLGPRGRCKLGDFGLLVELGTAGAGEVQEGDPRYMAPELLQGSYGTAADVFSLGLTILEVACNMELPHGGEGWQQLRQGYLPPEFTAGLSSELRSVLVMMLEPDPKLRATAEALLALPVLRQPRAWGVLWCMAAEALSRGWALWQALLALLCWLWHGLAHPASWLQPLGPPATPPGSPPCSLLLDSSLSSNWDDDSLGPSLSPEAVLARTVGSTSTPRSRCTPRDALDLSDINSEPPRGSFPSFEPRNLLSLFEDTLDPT

SMILES	IC50 [nM]
N#Cc1cc(Cl)cc2c(-c3ccc(Cl)c4[nH]ncc34)c(N)c(=O)[nH]c12 [Compound A21, 3-Amino-6-chloro-4-(7-chloro-1H-indazol-4-yl)-2-oxo-1H-quinoline-8-carbonitrile]	20
COc1cccc(-c2c(N)c(=O)[nH]c3ccc(Cl)cc23)c1 [Compound A42, 3-Amino-6-chloro-4-(3-methoxyphenyl)-1H-quinolin-2-one]	450
CO[C@H]1C[C@@H](Oc2cc3c(-c4ccc(F)c5[nH]ncc45)c(N)c(=O)[nH]c3c3cccnc23)C1 [Compound C29, 3-Amino-4-(7-fluoro-1H-indazol-4-yl)-6-((1s,3s)-3-methoxycyclobutoxy)-1,7-phenanthrolin-2(1H)-one]	3.3
Nc1cc(-c2c(N)c(=O)[nH]c3ccc(Cl)cc23)ccn1 [Compound A47, 3-Amino-4-(2-aminopyridin-4-yl)-6-chloro-1H-quinolin-2-one]	3300
Nc1c(-c2ccc(F)c3[nH]ncc23)c2cc(C3CC3)c3cc(Cl)ccc3c2[nH]c1=O [Compound B14, 3-Amino-8-chloro-6-cyclopropyl-4-(7-fluoro-1H-indazol-4-yl)-1H-benzo[h]quinolin-2-one]	18
Cc1n[nH]c2cccc(-c3c(N)c(=O)[nH]c4ccc(Cl)cc34)c12 [Compound A62, 3-Amino-6-chloro-4-(3-methyl-1H-indazol-4-yl)-1H-quinolin-2-one]	3900
Nc1c(-c2ccc(F)c3[nH]ncc23)c2cc(I)c3cc(Cl)ccc3c2[nH]c1=O [Compound B13, 3-Amino-8-chloro-4-(7-fluoro-1H-indazol-4-yl)-6-iodo-1H-benzo[h]quinolin-2-one]	85
Nc1c(-c2cccc(O)c2)c2cc(Br)c3ccccc3c2[nH]c1=O [Compound B4, 3-Amino-6-bromo-4-(3-hydroxyphenyl)-1H-benzo[h]quinolin-2-one]	27
Nc1c(-c2ccc(Cl)c3[nH]ncc23)c2cc(OCCCF)c(Cl)cc2[nH]c1=O [Compound A14, 3-Amino-7-chloro-4-(7-chloro-1H-indazol-4-yl)-6-(3-fluoropropoxy)-1H-quinolin-2-one]	2.1
Nc1c(-c2cccc(O)c2)c2cc(C3CC3)ccc2[nH]c1=O [Compound A65, 3-Amino-6-cyclopropyl-4-(3-hydroxyphenyl)-1H-quinolin-2-one]	190
CO[C@H]1C[C@H](Oc2cc3c(-c4ccc(F)c5[nH]ncc45)c(N)c(=O)[nH]c3c3cccnc23)C1 [Compound C30, 3-Amino-4-(7-fluoro-1H-indazol-4-yl)-6-((1r,3r)-3-methoxycyclobutoxy)-1,7-phenanthrolin-2(1H)-one]	5.8
N#C[C@H]1C[C@H](Oc2cc3c(-c4ccc(Cl)c5[nH]ncc45)c(N)c(=O)[nH]c3cc2F)C1 [Compound A5, (1r,3r)-3-[[3-Amino-4-(7-chloro-1H-indazol-4-yl)-7-fluoro-2-oxo-1H-quinolin-6-yl]oxy]cyclobutane-1-carbonitrile]	1.8

More lines, now with the values ahead:

IC50 [nM]	SMILES
1.7	Nc1c(-c2cc(F)c(F)c3[nH]ncc23)c2cc(OCCC(F)F)c3ncccc3c2[nH]c1=O [Compound C214, 3-Amino-4-(6,7-difluoro-1H-indazol-4-yl)-6-(3,3-difluoropropoxy)-1H-1,7-phenanthrolin-2-one]
3.6	Cc1cc2c(-c3cc(F)c(Cl)c4[nH]ncc34)c(N)c(=O)[nH]c2c2cccnc12 [Compound C196, 3-Amino-4-(7-chloro-6-fluoro-1H-indazol-4-yl)-6-methyl-1H-1,7-phenanthrolin-2-one]
4	Nc1c(-c2ccc(F)c3[nH]ncc23)c2cc(OC3CCS(=O)(=O)CC3)c3ncccc3c2[nH]c1=O [Compound C47, 3-Amino-6-(1,1-dioxothian-4-yl)oxy-4-(7-fluoro-1H-indazol-4-yl)-1H-1,7-phenanthrolin-2-one]
33	Nc1c(-c2ccc(F)c3[nH]ncc23)c2cc(N3CCC(C(F)(F)F)CC3)c3ncccc3c2[nH]c1=O [Compound C131, 3-Amino-4-(7-fluoro-1H-indazol-4-yl)-6-[4-(trifluoromethyl)piperidin-1-yl]-1H-1,7-phenanthrolin-2-one]
20	Nc1c(-c2ccc(F)c3[nH]ncc23)c2cc(C(F)(F)F)c3ncccc3c2[nH]c1=O [Compound C187, 3-Amino-4-(7-fluoro-1H-indazol-4-yl)-6-(trifluoromethyl)-1H-1,7-phenanthrolin-2-one]
4	Cc1cc2c(-c3ccc(Cl)c4[nH]ncc34)c(N)c(=O)[nH]c2c2cccnc12 [Compound C152, 3-Amino-4-(7-chloro-1H-indazol-4-yl)-6-methyl-1H-1,7-phenanthrolin-2-one]
4.5	Nc1c(-c2ccc(F)c3[nH]ncc23)c2cc(OC3CCCCC3)c3ncccc3c2[nH]c1=O [Compound C17, 3-Amino-6-cyclohexyloxy-4-(7-fluoro-1H-indazol-4-yl)-1H-1,7-phenanthrolin-2-one]
750	Cc1cc2c(-c3nccc4[nH]ncc34)c(N)c(=O)[nH]c2c2cccnc12 [Compound C223, 3-Amino-6-methyl-4-(1H-pyrazolo[4,3-c]pyridin-4-yl)-1H-1,7-phenanthrolin-2-one]
33	Nc1c(-c2ccc(F)c3[nH]ncc23)c2cc(N3CCN(CC(F)F)CC3)c3cccnc3c2[nH]c1=O [Compound D14, 3-Amino-6-[4-(2,2-difluoroethyl)piperazin-1-yl]-4-(7-fluoro-1H-indazol-4-yl)-1H-1,10-phenanthrolin-2-one]
1.5	CN1CCN(c2cc3c(-c4cc(F)c(F)c5[nH]ncc45)c(N)c(=O)[nH]c3c3cccnc23)CC1 [Compound C209, 3-Amino-4-(6,7-difluoro-1H-indazol-4-yl)-6-(4-methylpiperazin-1-yl)-1H-1,7-phenanthrolin-2-one]
8	Cn1ncc2c(C3CC3)cc3c(-c4ccc(F)c5[nH]ncc45)c(N)c(=O)[nH]c3c21 [Compound I3, 7-Amino-4-cyclopropyl-6-(7-fluoro-1H-indazol-4-yl)-1-methyl-9H-pyrazolo[4,3-h]quinolin-8-one]
1.6	CC(C)Oc1cc2c(-c3ccc(F)c4[nH]ncc34)c(N)c(=O)[nH]c2c2nccnc12 [Compound G15, 8-Amino-7-(7-fluoro-1H-indazol-4-yl)-5-propan-2-yloxy-10H-pyrido[2,3-f]quinoxalin-9-one]
4.1	Nc1c(-c2cc(F)c(F)c3[nH]ncc23)c2c(F)c(C3CC3)c3ncccc3c2[nH]c1=O [Compound C220, 3-Amino-6-cyclopropyl-4-(6,7-difluoro-1H-indazol-4-yl)-5-fluoro-1H-1,7-phenanthrolin-2-one]
6.5	CC(C)(O)COc1cc2c(-c3ccc(F)c4[nH]ncc34)c(N)c(=O)[nH]c2c2cccnc12 [Compound C24, 3-Amino-4-(7-fluoro-1H-indazol-4-yl)-6-(2-hydroxy-2-methylpropoxy)-1H-1,7-phenanthrolin-2-one]
1100	Nc1c(-c2cccc3[nH]ncc23)c2ccccc2oc1=O [Compound E1, 3-Amino-4-(1H-indazol-4-yl) chromen-2-one]
4.1	Nc1c(-c2cc(F)c(F)c3[nH]ncc23)c2cc(OC3CCC3)c3ncccc3c2[nH]c1=O [Compound C206, 3-Amino-6-cyclobutyloxy-4-(6,7-difluoro-1H-indazol-4-yl)-1H-1,7-phenanthrolin-2-one]
